{"source": "patent US10266526B2", "about": "“Substituted 1,2,3-triazoles as SMYD inhibitors for treating cancer” (EPIZYME, INC., priority 2014, dated 2019)", "data": [{"target": "SMYD3 (Homo sapiens (Human), UniProt Q9H7B4)", "sequence (Q9H7B4 whole entry)": "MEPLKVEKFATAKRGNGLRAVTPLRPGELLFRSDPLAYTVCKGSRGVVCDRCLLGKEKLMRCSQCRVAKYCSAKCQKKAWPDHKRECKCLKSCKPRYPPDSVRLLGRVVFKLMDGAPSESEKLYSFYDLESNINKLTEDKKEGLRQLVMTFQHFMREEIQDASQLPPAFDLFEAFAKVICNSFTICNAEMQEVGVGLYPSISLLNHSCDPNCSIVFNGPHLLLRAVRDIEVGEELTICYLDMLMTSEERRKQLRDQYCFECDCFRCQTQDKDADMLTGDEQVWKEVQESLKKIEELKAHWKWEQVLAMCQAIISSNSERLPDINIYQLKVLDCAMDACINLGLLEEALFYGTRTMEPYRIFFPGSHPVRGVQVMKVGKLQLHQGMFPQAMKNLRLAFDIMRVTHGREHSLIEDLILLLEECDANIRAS", "experiment": "SMYD3 biochemical assay (SMYD3 enzyme assay on MEKK2 protein substrate, 3H-SAM scintillation proximity assay)", "conditions": "Table 1A; average of n = 1 to n = 50; read-out: SMYD3 Biochem IC50", "method_in_brief": "(§1)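 Detection used scintillation proximity beads to capture ³H-methylated GST-MEKK2 after quench with 100 uM final cold SAM. The reaction was started by SAM/MEKK2 addition after a 30 min RT compound–enzyme preincubation. Enzyme was tag-free full-length human SMYD3 from E. coli, in buffer of 25 mM Tris-Cl pH 8.0, 1 mM TCEP, 0.005% BSG, 0.005% Tween 20.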", "units": {"IC50": "µM"}, "values": [{"compound": "NCCC(=O)N[C@H]1CC[C@H](NC(=O)c2cc3cc(Br)ccc3nc2O)CC1", "note": "[compound 566, N-((1r,4r)-4-(3-aminopropanamido)cyclohexyl)-6-bromo-2-hydroxyquinoline-3-carboxamide]", "IC50": "> 10"}]}, {"target": "SMYD3 (Homo sapiens (Human), UniProt Q9H7B4)", "experiment": "SMYD3 biochemical assay (SMYD3 enzyme assay on MEKK2 protein substrate, 3H-SAM scintillation proximity assay)", "conditions": "read-out: SMYD3 Biochem IC50", "method_in_brief": "as §1", "units": {"IC50": "µM"}, "values": [{"compound": "NCCC(=O)N[C@H]1CC[C@H](NC(=O)c2ccncc2F)CC1", "note": "[compound 390, N-((1r,4r)-4-(3-aminopropanamido)cyclohexyl)-3-fluoroisonicotinamide]", "IC50": "> 100"}, {"compound": "CC(NC(=O)c1ccc2c(c1)no[n+]2[O-])C1CCN(C(=O)[C@H](C)N)CC1", "note": "(stereo partly drawn) [compound 236, 5-((1-(1-(L-alanyl)piperidin-4-yl)ethyl)carbamoyl)benzo[c][1,2,5]oxadiazole 1-oxide]", "IC50": "> 100"}, {"compound": "CC(NC(=O)c1nc2ccccc2[nH]1)C1CCN(C(=O)[C@H](C)N)CC1", "note": "(stereo partly drawn) [compound 243, N-(1-(1-(L-alanyl)piperidin-4-yl)ethyl)-1H-benzo[d]imidazole-2-carboxamide]", "IC50": 72.9}, {"compound": "Cn1ccc(C(=O)N[C@H]2CC[C@H](N)CC2)n1", "note": "[compound 350, N-((1r,4r)-4-aminocyclohexyl)-1-methyl-1H-pyrazole-3-carboxamide]", "IC50": "> 100"}, {"compound": "N[C@H]1CC[C@H](NC(=O)Cc2ccc3c(c2)CC(=O)N3)CC1", "note": "[compound 448, N-((1r,4r)-4-aminocyclohexyl)-2-(2-oxoindolin-5-yl)acetamide]", "IC50": "> 100"}, {"compound": "CC(NC(=O)c1cncnc1O)C1CCN(C(=O)[C@H](C)N)CC1", "note": "(stereo partly drawn) [compound 509, N-(1-(1-(L-alanyl)piperidin-4-yl)ethyl)-4-hydroxypyrimidine-5-carboxamide]", "IC50": "> 50"}, {"compound": "CC(=O)Nc1ccc(C(=O)NC(C)C2CCN(C(=O)[C@H](C)N)CC2)nc1", "note": "(stereo partly drawn) [compound 462, N-(1-(1-(L-alanyl)piperidin-4-yl)ethyl)-5-acetamidopicolinamide]", "IC50": "> 100"}, {"compound": "CC(NC(=O)c1cc2cn[nH]c2cn1)C1CCN(C(=O)[C@H](C)N)CC1", "note": "(stereo partly drawn) [compound 496, N-(1-(1-(L-alanyl)piperidin-4-yl)ethyl)-1H-pyrazolo[3,4-c]pyridine-5-carboxamide]", "IC50": 6.57}, {"compound": "CC(NC(=O)c1cc2ccccc2nc1O)C1CCN(C(=O)[C@H](C)N)CC1", "note": "(stereo partly drawn) [compound 474, N-(1-(1-(L-alanyl)piperidin-4-yl)ethyl)-2-hydroxyquinoline-3-carboxamide]", "IC50": 22.1}, {"compound": "NCCC(=O)N[C@H]1CC[C@H](NC(=O)c2ccc(-n3cncn3)cc2)CC1", "note": "[compound 473, N-((1r,4r)-4-(3-aminopropanamido)cyclohexyl)-4-(1H-1,2,4-triazol-1-yl)benzamide]", "IC50": 53.1}, {"compound": "Nc1cccc(C(=O)N[C@H]2CC[C@H](N)CC2)n1", "note": "[compound 386, 6-amino-N-((1r,4r)-4-aminocyclohexyl)picolinamide]", "IC50": "> 100"}, {"compound": "CC(NC(=O)c1ccc2[nH]ccc2c1)C1CCN(C(=O)[C@H](C)N)CC1", "note": "(stereo partly drawn) [compound 283, N-(1-(1-(L-alanyl)piperidin-4-yl)ethyl)-1H-indole-5-carboxamide]", "IC50": "> 100"}, {"compound": "NCCC(=O)N[C@H]1CC[C@H](C(=O)Nc2ccc3c(c2)CC(=O)N3)CC1", "note": "[compound 467, (1r,4r)-4-(3-aminopropanamido)-N-(2-oxoindolin-5-yl)cyclohexane-1-carboxamide]", "IC50": 4.46}, {"compound": "NCCC(=O)N[C@H]1CC[C@H](NC(=O)Cc2cccnc2)CC1", "note": "[compound 363, 3-amino-N-((1r,4r)-4-(2-(pyridin-3-yl)acetamido)cyclohexyl)propanamide]", "IC50": "> 100"}, {"compound": "Cn1ncc2ccc(C(=O)N[C@H]3CC[C@H](N)CC3)cc21", "note": "[compound 275, N-((1r,4r)-4-aminocyclohexyl)-1-methyl-1H-indazole-6-carboxamide]", "IC50": "> 100"}, {"compound": "N[C@H]1CC[C@H](NC(=O)c2cc3ccccc3[nH]2)CC1", "note": "[compound 234, N-((1r,4r)-4-aminocyclohexyl)-1H-indole-2-carboxamide]", "IC50": "> 100"}, {"compound": "COc1cc(C(=O)N[C@H]2CC[C@H](NC(=O)CCN)CC2)c2ccccc2n1", "note": "[compound 222, N-((1r,4r)-4-(3-aminopropanamido)cyclohexyl)-2-methoxyquinoline-4-carboxamide]", "IC50": "> 100"}, {"compound": "N[C@H]1CC[C@H](NC(=O)c2cncs2)CC1", "note": "[compound 359, N-((1r,4r)-4-aminocyclohexyl)thiazole-5-carboxamide]", "IC50": "> 100"}, {"compound": "CC(NC(=O)c1cc(=O)c2ccccc2o1)C1CCN(C(=O)[C@H](C)N)CC1", "note": "(stereo partly drawn) [compound 224, N-(1-(1-(L-alanyl)piperidin-4-yl)ethyl)-4-oxo-4H-chromene-2-carboxamide]", "IC50": "> 100"}, {"compound": "N[C@H]1CC[C@H](NC(=O)c2cnccn2)CC1", "note": "[compound 298, N-((1r,4r)-4-aminocyclohexyl)pyrazine-2-carboxamide]", "IC50": "> 100"}, {"compound": "CC(NC(=O)c1cc2cc(F)ccc2[nH]1)C1CCN(C(=O)[C@H](C)N)CC1", "note": "(stereo partly drawn) [compound 198, N-(1-(1-(L-alanyl)piperidin-4-yl)ethyl)-5-fluoro-1H-indole-2-carboxamide]", "IC50": 41.7}, {"compound": "N[C@H]1CC[C@H](NC(=O)c2ccc3c(c2)CCCC3)CC1", "note": "[compound 204, N-((1r,4r)-4-aminocyclohexyl)-5,6,7,8-tetrahydronaphthalene-2-carboxamide]", "IC50": 47.4}, {"compound": "CC(NC(=O)C1C[C@@H]2C=C[C@H]1C2)C1CCN(C(=O)[C@H](C)N)CC1", "note": "(stereo partly drawn) [compound 338, (1r,4r)-N-(1-(1-(L-alanyl)piperidin-4-yl)ethyl)bicyclo[2.2.1]hept-5-ene-2-carboxamide]", "IC50": "> 100"}, {"compound": "CC(NC(=O)Cc1ccc2c(c1)CC(=O)N2)C1CCN(C(=O)[C@H](C)N)CC1", "note": "(stereo partly drawn) [compound 466, N-(1-(1-(L-alanyl)piperidin-4-yl)ethyl)-2-(2-oxoindolin-5-yl)acetamide]", "IC50": 60}, {"compound": "NCCC(=O)N[C@H]1CC[C@H](NC(=O)/C=C/c2c[nH]cn2)CC1", "note": "[compound 482, (E)-N-((1r,4r)-4-(3-aminopropanamido)cyclohexyl)-3-(1H-imidazol-4-yl)acrylamide]", "IC50": 71.1}, {"compound": "NCCC(=O)N[C@H]1CC[C@H](NC(=O)c2cc3ccccc3nc2O)CC1", "note": "[compound 456, N-((1r,4r)-4-(3-aminopropanamido)cyclohexyl)-2-hydroxyquinoline-3-carboxamide]", "IC50": 22}, {"compound": "CC(NC(=O)[C@@H]1C[C@H](F)CN1)C1CCN(C(=O)[C@H](C)N)CC1", "note": "(stereo partly drawn) [compound 305, (2S,4S)-N-(1-(1-(L-alanyl)piperidin-4-yl)ethyl)-4-fluoropyrrolidine-2-carboxamide]", "IC50": 55.9}, {"compound": "N[C@H]1CC[C@H](NC(=O)c2ccccn2)CC1", "note": "[compound 251, N-((1r,4r)-4-aminocyclohexyl)picolinamide]", "IC50": "> 100"}]}, {"target": "SMYD3 (Homo sapiens (Human), UniProt Q9H7B4)", "experiment": "SMYD3 biochemical assay (SMYD3 enzyme assay on MEKK2 protein substrate, 3H-SAM scintillation proximity assay)", "conditions": "read-out: SMYD3 Biochem IC50 (μM)*", "method_in_brief": "as §1", "units": {"IC50": "µM"}, "values": [{"compound": "CC(NC(=O)c1nccc2ccccc12)C1CCN(C(=O)[C@H](C)N)CC1", "note": "(stereo partly drawn) [compound 171, N-(1-(1-(L-alanyl)piperidin-4-yl)ethyl)isoquinoline-1-carboxamide]", "IC50": "> 100"}, {"compound": "CCc1ccc(C(=O)N[C@H]2CC[C@H](N)CC2)s1", "note": "[compound 54, N-((1r,4r)-4-aminocyclohexyl)-5-ethylthiophene-2-carboxamide]", "IC50": 49.9}, {"compound": "CC(=O)Nc1ccc(S(=O)(=O)N2CCC(NC(=O)c3cnccn3)CC2)cc1", "note": "[compound 5, N-(1-((4-acetamidophenyl)sulfonyl)piperidin-4-yl)pyrazine-2-carboxamide]", "IC50": "> 100"}, {"compound": "CCn1ccc(C(=O)N[C@H]2CC[C@H](N)CC2)n1", "note": "[compound 13, N-((1r,4r)-4-aminocyclohexyl)-1-ethyl-1H-pyrazole-3-carboxamide]", "IC50": 112}, {"compound": "CC(NC(=O)c1ccc2ccccc2n1)C1CCN(C(=O)[C@H](C)N)CC1", "note": "(stereo partly drawn) [compound 162, N-(1-(1-(L-alanyl)piperidin-4-yl)ethyl)quinoline-2-carboxamide]", "IC50": "> 100"}, {"compound": "N[C@H]1CC[C@H](NC(=O)c2ccc3c(c2)NC(=O)CC3)CC1", "note": "[compound 91, N-((1r,4r)-4-aminocyclohexyl)-2-oxo-1,2,3,4-tetrahydroquinoline-7-carboxamide]", "IC50": 89.5}, {"compound": "CC(NC(=O)Cc1c[nH]c2ccccc12)C1CCN(C(=O)[C@H](C)N)CC1", "note": "(stereo partly drawn) [compound 167, N-(1-(1-(L-alanyl)piperidin-4-yl)ethyl)-2-(1H-indol-3-yl)acetamide]", "IC50": "> 100"}, {"compound": "N[C@H]1CC[C@H](NC(=O)c2cnc3c(c2)CC(=O)N3)CC1", "note": "[compound 47, N-((1r,4r)-4-aminocyclohexyl)-2-oxo-2,3-dihydro-1H-pyrrolo[2,3-b]pyridine-5-carboxamide]", "IC50": 11.9}, {"compound": "C[C@H](N)C(=O)NCCCCNC(=O)c1ccc2c(c1)CC(=O)N2", "note": "[compound 107, (S)-N-(4-(2-aminopropanamido)butyl)-2-oxoindoline-5-carboxamide]", "IC50": 14}, {"compound": "CC(=O)c1c[nH]c(C(=O)NC2CCNCC2)c1", "note": "[compound 65, 4-acetyl-N-(piperidin-4-yl)-1H-pyrrole-2-carboxamide]", "IC50": 45.8}, {"compound": "CC(=O)Nc1ccc(S(=O)(=O)N2CCC(NC(=O)c3ccncc3)CC2)cc1", "note": "[compound 4, N-(1-((4-acetamidophenyl)sulfonyl)piperidin-4-yl)isonicotinamide]", "IC50": "> 100"}, {"compound": "Cc1cc(C(=O)NC(c2ccccc2)C2CCNCC2)n(Cc2ccccc2)n1", "note": "(centres unmarked) [compound 32, 1-benzyl-3-methyl-N-(phenyl(piperidin-4-yl)methyl)-1H-pyrazole-5-carboxamide]", "IC50": 91.3}, {"compound": "C[C@H](N)C(=O)N1CC[C@@H](CNC(=O)c2ccc3c(c2)CC(=O)N3)C1", "note": "[compound 134, N-(((S)-1-(L-alanyl)pyrrolidin-3-yl)methyl)-2-oxoindoline-5-carboxamide]", "IC50": 10.2}, {"compound": "N[C@H]1CC[C@H](NC(=O)c2cncc(Br)c2)CC1", "note": "[compound 116, N-((1r,4r)-4-aminocyclohexyl)-5-bromonicotinamide]", "IC50": 51}, {"compound": "N[C@@H](Cc1ccc(O)cc1)C(=O)N1CCC(NC(=O)c2ccc3c(c2)NC(=O)C3)CC1", "note": "[compound 72, N-(1-(L-tyrosyl)piperidin-4-yl)-2-oxoindoline-6-carboxamide]", "IC50": 35.5}]}]}
